Measurements reported in the supplement of paper PMC6045584.
± gives the standard deviation of the averaged measurements.

Legend:
[1] = compound: CC(=O)NCC(=O)N1[C@@H]2CC[C@H]1c1ccc(Nc3ncc(C(F)(F)F)c(NC4CCC4)n3)cc12; test: surviving fraction relative to DMSO-only wells; higher = less growth inhibition; details: exposure time: 5 days
Method in brief: (§1)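 Continuous five-day exposure to inhibitors at 0.5, 1, 5, 10, 50, 100, 500 and 1000 nM started 24 hours after log-phase tumour cell lines were seeded at 250–500 cells per well in 384-well plates. Luminescence was read after 10 minutes at room temperature. Viability is given as surviving fraction, meaning CellTiter-Glo luminescence normalised to the median of DMSO-only wells.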

[2] = compound: T1, CC(=O)O[C@H]1C(=O)[C@@]2(C)[C@H]([C@H](OC(=O)c3ccccc3)[C@]3(O)C[C@H](OC(=O)[C@H](O)[C@@H](NC(=O)c4ccccc4)c4ccccc4)C(C)=C1C3(C)C)[C@]1(OC(C)=O)CO[C@@H]1C[C@@H]2O [PACLITAXEL]; test: as above; details: exposure time: 5 days
Method in brief: as §1

[3] = compound: CC(=O)c1c(C)c2cnc(Nc3ccc(N4CCNCC4)cn3)nc2n(C2CCCC2)c1=O; test: as above; details: exposure time: 5 days
Method in brief: as §1

[4] = compound: T2, CC[C@@]1(O)C(=O)OCc2c1cc1n(c2=O)Cc2cc3ccccc3nc2-1 [CAMPTOTHECIN]; test: as above; details: exposure time: 5 days
Method in brief: as §1

[5] = compound: T3, COCC[n+]1c2c(n(Cc3cnccn3)c1C)C(=O)c1ccccc1C2=O [YM155]; test: as above; details: exposure time: 5 days
Method in brief: as §1

[6] = compound: T4, COc1cc2ncnc(Nc3ccc(F)c(Cl)c3)c2cc1OCCCN1CCOCC1 [GEFITINIB]; test: as above; details: exposure time: 5 days
Method in brief: as §1

[7] = compound: T5, C[C@]1(O)C[C@@H](c2nc(-c3ccc4ccc(-c5ccccc5)nc4c3)c3c(N)nccn32)C1 [OSI-906]; test: as above; details: exposure time: 5 days
Method in brief: as §1

[8] = compound: T6, Cc1ccc(-c2cc(C(F)(F)F)nn2-c2ccc(S(N)(=O)=O)cc2)cc1 [CELECOXIB]; test: as above; details: exposure time: 5 days
Method in brief: as §1

[9] = compound: T7, O=C(O)C1(C(=O)O)CCC1.[NH2-].[NH2-].[Pt+2] [CARBOPLATIN]; test: as above; details: exposure time: 5 days
Method in brief: as §1

[10] = compound: CC(=O)NCC(=O)N1[C@@H]2CC[C@H]1c1ccc(Nc3ncc(C(F)(F)F)c(NC4CCC4)n3)cc12; test: area under dose-response curve of surviving fraction (unscaled, Aref=0) (surviving fraction x log10(nM)); higher = more resistant; details: exposure time: 5 days; dose range 0.5-1000 nM
Method in brief: (§2)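 Three screens per tumour cell line were run in 384-well plates at eight inhibitor concentrations from 0.5 to 1000 nM over five days. Surviving fractions, from CellTiter-Glo luminescence normalised to DMSO-only wells, were fitted with 3-parameter logistic curves in the drc R package. The reported area under the curve is the unscaled activity area. It spans log10 dose, and Aref is 0.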

[11] = compound: T1, PACLITAXEL; test: as above; details: exposure time: 5 days; dose range 0.5-1000 nM
Method in brief: as §2

[12] = compound: CC(=O)c1c(C)c2cnc(Nc3ccc(N4CCNCC4)cn3)nc2n(C2CCCC2)c1=O; test: as above; details: exposure time: 5 days; dose range 0.5-1000 nM
Method in brief: as §2

[13] = compound: T2, CAMPTOTHECIN; test: as above; details: exposure time: 5 days; dose range 0.5-1000 nM
Method in brief: as §2

[14] = compound: T3, YM155; test: as above; details: exposure time: 5 days; dose range 0.5-1000 nM
Method in brief: as §2

[15] = compound: T4, GEFITINIB; test: as above; details: exposure time: 5 days; dose range 0.5-1000 nM
Method in brief: as §2

[16] = compound: T5, OSI-906; test: as above; details: exposure time: 5 days; dose range 0.5-1000 nM
Method in brief: as §2

[17] = compound: T6, CELECOXIB; test: as above; details: exposure time: 5 days; dose range 0.5-1000 nM
Method in brief: as §2

[18] = compound: T7, CARBOPLATIN; test: as above; details: exposure time: 5 days; dose range 0.5-1000 nM
Method in brief: as §2

CAL51 BREAST
surviving fraction ([1]; 0.5 nM): 1.01 ± 0.041 | surviving fraction ([1]; 1 nM): 0.9652 ± 0.005 | surviving fraction ([1]; 5 nM): 0.988 ± 0.032 | surviving fraction ([1]; 10 nM): 0.946 ± 0.013 | surviving fraction ([1]; 50 nM): 0.675 ± 0.019 | surviving fraction ([1]; 100 nM): 0.222 ± 0.0058 | surviving fraction ([1]; 500 nM): 0.144 ± 0.0039 | surviving fraction ([1]; 1000 nM): 0.146 ± 0.009 | surviving fraction ([2]; 0.5 nM): 0.824 ± 0.04 | surviving fraction ([2]; 1 nM): 0.642 ± 0.076 | surviving fraction ([2]; 5 nM): 0.0935 ± 0.013 | surviving fraction ([2]; 10 nM): 0.0585 ± 0.0033 | surviving fraction ([2]; 50 nM): 0.0427 ± 0.0018 | surviving fraction ([2]; 100 nM): 0.0332 ± 0.0037 | surviving fraction ([2]; 500 nM): 0.0295 ± 0.0005 | surviving fraction ([2]; 1000 nM): 0.0332 ± 0.0027 | surviving fraction ([3]; 0.5 nM): 0.964 ± 0.089 | surviving fraction ([3]; 1 nM): 0.962 ± 0.055 | surviving fraction ([3]; 5 nM): 0.982 ± 0.037 | surviving fraction ([3]; 10 nM): 0.94 ± 0.06 | surviving fraction ([3]; 50 nM): 0.997 ± 0.029 | surviving fraction ([3]; 100 nM): 1.07 ± 0.012 | surviving fraction ([3]; 500 nM): 0.968 ± 0.052 | surviving fraction ([3]; 1000 nM): 0.908 ± 0.0048 | surviving fraction ([4]; 0.5 nM): 0.923 ± 0.077 | surviving fraction ([4]; 1 nM): 0.881 ± 0.05 | surviving fraction ([4]; 5 nM): 0.797 ± 0.027 | surviving fraction ([4]; 10 nM): 0.52 ± 0.014 | surviving fraction ([4]; 50 nM): 0.0468 ± 0.0037 | surviving fraction ([4]; 100 nM): 0.0333 ± 0.0025 | surviving fraction ([4]; 500 nM): 0.0225 ± 0.00087 | surviving fraction ([4]; 1000 nM): 0.0242 ± 0.0021 | surviving fraction ([5]; 0.5 nM): 0.905 ± 0.039 | surviving fraction ([5]; 1 nM): 0.873 ± 0.042 | surviving fraction ([5]; 5 nM): 0.231 ± 0.029 | surviving fraction ([5]; 10 nM): 0.105 ± 0.015 | surviving fraction ([5]; 50 nM): 0.0278 ± 0.001 | surviving fraction ([5]; 100 nM): 0.0232 ± 0.00058 | surviving fraction ([5]; 500 nM): 0.019 ± 0.00087 | surviving fraction ([5]; 1000 nM): 0.024 ± 0.0005 | surviving fraction ([6]; 0.5 nM): 1.01 ± 0.089 | surviving fraction ([6]; 1 nM): 0.995 ± 0.07 | surviving fraction ([6]; 5 nM): 1.01 ± 0.015 | surviving fraction ([6]; 10 nM): 1 ± 0.036 | surviving fraction ([6]; 50 nM): 1.08 ± 0.035 | surviving fraction ([6]; 100 nM): 1.02 ± 0.016 | surviving fraction ([6]; 500 nM): 1.13 ± 0.015 | surviving fraction ([6]; 1000 nM): 1.07 ± 0.066 | surviving fraction ([7]; 0.5 nM): 0.958 ± 0.023 | surviving fraction ([7]; 1 nM): 0.924 ± 0.018 | surviving fraction ([7]; 5 nM): 0.9553 ± 0.0093 | surviving fraction ([7]; 10 nM): 0.94 ± 0.087 | surviving fraction ([7]; 50 nM): 1.01 ± 0.02 | surviving fraction ([7]; 100 nM): 0.992 ± 0.031 | surviving fraction ([7]; 500 nM): 0.948 ± 0.029 | surviving fraction ([7]; 1000 nM): 0.922 ± 0.074 | surviving fraction ([8]; 0.5 nM): 1.03 ± 0.023 | surviving fraction ([8]; 1 nM): 1.04 ± 0.056 | surviving fraction ([8]; 5 nM): 0.991 ± 0.026 | surviving fraction ([8]; 10 nM): 0.998 ± 0.08 | surviving fraction ([8]; 50 nM): 1.07 ± 0.027 | surviving fraction ([8]; 100 nM): 1.11 ± 0.03 | surviving fraction ([8]; 500 nM): 1.07 ± 0.021 | surviving fraction ([8]; 1000 nM): 1.05 ± 0.064 | surviving fraction ([9]; 0.5 nM): 0.974 ± 0.023 | surviving fraction ([9]; 1 nM): 0.924 ± 0.08 | surviving fraction ([9]; 5 nM): 0.98 ± 0.018 | surviving fraction ([9]; 10 nM): 0.996 ± 0.017 | surviving fraction ([9]; 50 nM): 1.03 ± 0.077 | surviving fraction ([9]; 100 nM): 1.02 ± 0.022 | surviving fraction ([9]; 500 nM): 1.09 ± 0.022 | surviving fraction ([9]; 1000 nM): 0.977 ± 0.024 | area under dose-response curve [10]: 2.15 | area under dose-response curve [11]: 0.546 | area under dose-response curve [12]: 3.21 | area under dose-response curve [13]: 1.36 | area under dose-response curve [14]: 0.772 | area under dose-response curve [15]: 3.42 | area under dose-response curve [16]: 3.16 | area under dose-response curve [17]: 3.45 | area under dose-response curve [18]: 3.33
